Patent US5474988A, “5-phenylpyrrolo-1,4-benzoxazine and 5-phenylpyrrolo-1,4-benzothiazine compounds, process and intermediates for their production and pharmaceutical compositions containing them” (Kali-Chemie Pharma GmbH, priority 1993, dated 1995)

Key:
[1] = system: P.A.F.-induced aggregation of blood platelets; experiment: anti-P.A.F. action in vitro (P.A.F.-induced platelet aggregation); type: cell-based; conditions: Oryctolagus cuniculus, 10^-5 mole/liter, read-out: Anti-P.A.F. activity in vitro, % inhibition of the P.A.F.-induced aggregation of blood platelets from rabbit blood
Text: 3. Determination of the anti-P.A.F. action in vitro.
P.A.F. (=Platelet Activating Factor=Platelet Aggregation Factor) is a phospholipid mediator which has a multiplicity of actions. The activation of blood platelet aggregation results in the induction of long-lasting bronchoconstrictions and hyperreactivity of the respiratory passages.
In this test, the effect of the test substances on platelet aggregation induced by addition of P.A.F. in a platelet suspension obtained from rabbit blood was investigated according to the method described by Mikashima et al. (Jap. J. Pharmacol. 44 (1987) 387-391).
A suspension of platelets obtained from rabbit blood was used which contains 4×10^9 platelets/ml in a modified Tyrode buffer solution (=Tyrode solution with the addition of 1.3 mM/l of CaCl2 and 2.5 g/l of gelatine) adjusted to pH 7.4. Tyrode solution is an aqueous solution containing, per liter, 136.9 mmole of NaCl, 2.68 mmole of KCl, 2.31 mmole of CaCl2, 1.0 mmole of MgCl2, 11.9 mmole of NaHCO3, 1.45 mmole of NaH2 PO4 and 5.55 mmole of glucose. The platelets were concentrated from 10 ml blood samples of three rabbits (New Zealand hybrids, body weight 3-4 kg) in each case. To accomplish this, the blood samples were treated with ethylenediaminetetraacetic acid and washed according to the method of Artley et al. (Brit. J. Haematol. 19 (1970), 7-17). A platelet-rich plasma was first separated by centrifugation (20 minutes at 400×g). The platelets were separated from the plasma by repeated centrifugation for 15 minutes at 1400×g.After the centrifugation, the blood platelets remaining in the sediment were resuspended in a Tyrode buffer solution (but without calcium). 0.4 mmole of lysine acetylsalicylate was then added, and the blood platelets were sedimented again after 15 minutes. The sediment was resuspended in the aforementioned modified Tyrode buffer solution, and the number of platelets in the suspension obtained was adjusted to the desired content.
A 40×10^-9 molar P.A.F. solution was employed as a reagent. This solution was prepared from a 1.8×10^-3 molar stock solution in chloroform. To do this, a 10 μl sample of the stock solution was evaporated to dryness and dissolved again in 180 μl of the modified Tyrode buffer solution, to which 0.25% of lipid-free bovine serum albumin had been added. 10^-5 molar working solutions were then prepared from this and stored frozen. Samples of these solutions were appropriately diluted for tests.
In order to carry out the test, 50 μl of the blood platelet suspension and 10 μl of a 40×10^-5 molar solution of the compound to be investigated were added to […] of the modified Tyrode buffer solution with stirring (1000 rpm) in an aggregation tube provided with a small magnetic stirrer. This corresponded to a final test substance concentration of 10^-5 mole/l. After a preincubation time of 90 seconds, 10 μl of the P.A.F. preparation were added. For 4-5 minutes, the aggregation occurring in the aggregation tube was measured by means of a computerized aggregometer.
The aggregation occurring in the test tubes containing only the platelet suspension is rated as 0%. The aggregation occurring in the test tubes containing platelet suspension and P.A.F. preparation, in which a P.A.F.-induced increase in platelet aggregation takes place, is rated as 100%. The aggregation still occurring after addition of the test substances is measured, and from this the inhibition of the P.A.F.-inducedincrease in aggregation which takes place is calculated in %.

5-lipoxygenase = target: T1, 5-lipoxygenase (Cavia porcellus, UniProt A0A286X958); experiment: inhibitory activity on free 5-lipoxygenase concentrated from peritoneal PMNs of the guinea-pig (5-HETE formation); type: biochemical; conditions: 10^-5 mole/liter; guinea-pig 5-LO, 37° C.; read-out: In vitro % inhibitory activity on 5-HETE formation caused by free 5-LO
T1 construct: The 5-LO was concentrated in a known manner from PMNs of male Dunkin-Hartley guinea-pigs; endogenous in cells; host or cells: peritoneal PMNs of male Dunkin-Hartley guinea-pigs, homogenized; 10,000 x g supernatant used as enzyme solution
T1 sequence (A0A286X958 1-674): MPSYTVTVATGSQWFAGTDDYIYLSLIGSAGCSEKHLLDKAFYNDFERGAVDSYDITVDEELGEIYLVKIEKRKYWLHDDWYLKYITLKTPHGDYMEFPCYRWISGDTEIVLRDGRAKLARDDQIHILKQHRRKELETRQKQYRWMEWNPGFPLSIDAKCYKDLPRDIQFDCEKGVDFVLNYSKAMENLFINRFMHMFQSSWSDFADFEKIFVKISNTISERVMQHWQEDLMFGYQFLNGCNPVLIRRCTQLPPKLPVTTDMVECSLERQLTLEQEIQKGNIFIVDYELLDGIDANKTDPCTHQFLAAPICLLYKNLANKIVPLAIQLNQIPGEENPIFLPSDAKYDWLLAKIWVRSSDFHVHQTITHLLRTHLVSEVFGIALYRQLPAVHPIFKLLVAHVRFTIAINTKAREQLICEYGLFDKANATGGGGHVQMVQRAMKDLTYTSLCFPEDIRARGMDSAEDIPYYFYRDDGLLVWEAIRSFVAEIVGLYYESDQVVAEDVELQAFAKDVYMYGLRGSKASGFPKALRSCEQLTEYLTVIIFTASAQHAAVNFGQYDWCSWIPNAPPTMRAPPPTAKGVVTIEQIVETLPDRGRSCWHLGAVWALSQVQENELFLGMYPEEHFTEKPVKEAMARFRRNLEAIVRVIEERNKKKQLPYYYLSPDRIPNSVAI
Text: 4b. In vitro determination of inhibitory activity on 5-lipoxygenase concentrated from peritoneal PMNs of the guinea-pig.
An inhibition of 5-lipoxygenase can be caused by direct inhibitory action of the substances on the enzyme and/or by interference with the activation of the enzyme. While in test 4a the 5-lipoxygenase inhibition of the substances was investigated in rat PMN cells, in test 4b the inhibitory activity of the substances was investigated on free 5-LO concentrated from guinea-pig PMN cells according to the method of D. Aharony et al., J. Biol. Chem. 261 (1986), 11512-11519 (1986).
The 5-LO was concentrated in a known manner from PMNs of male Dunkin-Hartley guinea-pigs (body weight 400 to 500 g) as follows. 10 ml of a solution containing 27.9 g/l of sodium thioglycolate were injected i.p. into the animals in order to induce the PMN invasion as a result of this inflammatory stimulus. After 22 hours, the animals were sacrificed by lethal ether anaesthesia. 70 ml of HBSS without Ca^++ and Mg^++ ions and containing 0.2% by weight of sodium citrate were then injected into the abdominal cavity. The cell suspension (>80% of the cells are PMNs) was withdrawn from the abdominal cavity, filtered through a cheese-making filter cloth, and washed twice with a 50 mM potassium phosphate buffer solution of pH 7.4, which contained 0.5 mM ethylenediaminetetraacetic acid, 1% by weight of gelatine and 20 μM indomethacin. The cells were resuspended, and the PMN suspension containing 10^8 cells/ml was homogenized three times for 15 seconds each in an ice-bath in a homogenizer of the Labsonic™ type set at high speed. The resulting suspension was centrifuged at 4° C. (15 minutes at 10,000×g). The supernatant liquid was used for the investigation as a solution of the free 5-LO enzyme.
The experiments were carried out at 37° C. for 7 minutes using 0.625 ml samples of this enzyme solution. For the experiments, the enzyme solution (=equivalent of 2.5×10^7 cells), 0.5 mM glutathione, 1 mM ATP and 0.3 mM calcium chloride were added to test tubes. […] of the test substance were added to the samples dissolved in sufficient dimethylformamide such that the dimethylformamide concentration in each test tube is 0.5%. Only dimethylformamide was added to the control samples. After 2 minutes, the formation of 5-(S)-hydroxy-6,8,11,14-eicosatetraenoic acid (=[…]) was initiated by addition 10 μM arachidonic acid. After 5 minutes, the reaction was terminated by addition of 0.625 ml of a mixture of methyl acetate/methanol/0.2 m citric acid 15:2:0.5 v/v/v. 5-HETE was extracted twice using this solvent mixture. The 5-HETE-containing phases were combined and evaporated to dryness under a nitrogen atmosphere. The residue was taken up in a mixture of methanol/water/acetic acid 75:21:0.02 v/v/v having a pH of 5.7, and the solution was investigated for its content of 5-HETE by means of reverse phase HPLC. To accomplish this, a […] silanized silica gel column (Hichrom® ODS2, 250×4.6 mm) was employed as the adsorbent and a mixture of methanol/water/acetic acid 75:21:0.02 adjusted to pH 5.7 with ammonia and having a flow rate of 1 ml/min was used as the eluent. 5-HETE, which was eluted as a single peak after 20 minutes, was identified by comparison with standard solutions eluted at the same time and determined using a UV light detector at a wavelength of 235 nm. Quantitative determination was carried out by comparison of the peak area obtained with peak areas occurring in the calibrated standard solutions. From the 5-HETE contents of the samples determined, the inhibitory activity of the test substances was calculated in % inhibition of 5-HETE synthesis in comparison to the control samples containing no test substance.

Question: How did the inhibition at 10 µM [1] turn out when `Cc1ccnc(N2CCN(C(=O)CC3Cn4c(-c5ccc(O)cc5)c(C)c5cccc(c54)O3)CC2)c1` (centres unmarked) [Example 17] was run?
Answer: 99%

Question: What about the inhibition at 10 µM (5-lipoxygenase) of the same molecule?
Answer: 100%

Question: For `Cc1ccnc(N2CCN(CCCCC3Cn4c(-c5cc(C)c(O)c(C)c5)c(C)c5cccc(c54)O3)CC2)c1` (centres unmarked) [Example 18], which inhibition at 10 µM [1] is on record?
Answer: 78%

Question: And the inhibition at 10 µM (5-lipoxygenase)?
Answer: 100%

Question: With `Cc1ccnc(N2CCN(CCC3Cn4c(-c5ccc(O)cc5)c(C)c5c(F)ccc(c54)O3)CC2)c1` (centres unmarked) [Example 22] as the molecule, how does the inhibition at 10 µM [1] read?
Answer: 84%

Question: And the inhibition at 10 µM (5-lipoxygenase)?
Answer: 97%

Question: What does the source list for `Cc1ccnc(N2CCN(C(=O)CCC3Cn4c(-c5cc(C)c(O)c(C)c5)c(C)c5c(F)ccc(c54)O3)CC2)c1` (centres unmarked) [Example 54]?
Answer: inhibition at 10 µM [1]: 65%; inhibition at 10 µM (5-lipoxygenase): 63%
